Data: paper PMC3130785, “Small Compound 6-O-Angeloylplenolin Induces Mitotic Arrest and Exhibits Therapeutic Potentials in Multiple Myeloma” (PLoS ONE, 2011)

Legend:
[1] = system: Staphylococcus aureus; design: method as in PMID 9461679, PMID 8657743, PMID 12521264; conditions: cited from earlier work
[2] = system: Bacillus subtilis; design: method as in PMID 9461679, PMID 8657743, PMID 12521264; conditions: cited from earlier work
[3] = system: pERK1/2; assay: Western blotting, 6-OAP/BOR; format: cell-based, human; conditions: MM.1S; BOR 3 nM for 12 to 24 h with 6-OAP 5 µM
Description: Cell pellets were lysed in RIPA buffer containing 50 mM Tris pH 8.0, 150 mM NaCl, 0.1% SDS, 0.5% deoxycholate, 1% NP-40, 1 mM DTT, 1 mM NaF, 1 mM sodium vanadate, and protease inhibitors cocktail (Sigma). For immunoprecipitations, cells were lysed on ice for 15 minutes in RIPA buffer. Lysates were centrifuged. The supernatant was incubated with indicated antibodies overnight, after which protein A/G Plus beads (Santa Cruz Biotechnology) were added and incubated for 3 h. The beads were washed 4 times in RIPA buffer. Then the beads were resuspended in 1× sample buffer and boiled for 3 min. Protein extracts were quantitated and loaded on 8% to 12% sodium dodecyl sulfate polyacrylamide gel, electrophoresed, and transferred to a nitrocellulose membrane (Whatman). The membrane was incubated with primary antibody, washed, and incubated with horseradish peroxidase (HRP)–conjugated secondary antibody (Pierce). Detection was performed by using a chemiluminescent western detection kit (Cell Signaling). […]

[4] = system: MM.1R cells; assay: MTT assay, Dex with or without 6-OAP; format: cell-based, human; conditions: Dex 1 to 2 µM alone, 48 h, MTT
Description: U266, RPMI 8226 cells (1×10^4), primary CD138+ cells, PBMCs (5×10^4), and BMSCs (1×10^4) were cultured in 96-well dishes and incubated without or with 6-OAP at indicated concentration for 48 h. MM.1S and MM.1R cells (2×10^4) were seeded into 96-well dishes and pre-cultured for 24 h, then treated with 6-OAP for 48 h. Cell proliferation was determined by MTT assay. Cell viability was estimated by trypan blue dye exclusion.
Figure 4 6-OAP enhances cytotoxicity of Dox, Dex and BOR to MM cells. (A through C) MM.1S cells were treated for 48 h with Dox (A), Dex (B) or BOR (C) in the presence or absence of 6-OAP at 5 µM. MTT assay was used to test the proliferation of MM.1S cells. (D) MM.1R cells were treated for 48 h with Dex in the presence or absence of 6-OAP at 7.5 µM. MTT assay was used to test the proliferation of MM.1R cells. *p<.001,** p<.05. (E) MM.1S cells were cultured with control media (con), 6-OAP (O, 5 µM), BOR (B, 3 nM), or 6-OAP (5 µM) plus BOR (3 nM) (OB) for indicated time points. Cells were then lysed and subjected to Western blotting using indicated antibodies. CF, cleavage fragment.

Row | Compound | antibacterial activity [1] | antibacterial activity [2] | 6-OAP-induced pERK1/2 upregulation [3] | inhibition of cell proliferation [4]
1 | CC(C)C(=O)OC1C2C(CC(C)C3C=CC(=O)C31C)OC(=O)C2C (stereo not drawn) [6-O-isobutyroylplenolin] | exhibit antibacterial activity | exhibit antibacterial activity | – | –
2 | CC(C)C[C@H](NC(=O)[C@H](Cc1ccccc1)NC(=O)c1cnccn1)B(O)O [BOR, bortezomib, reference compound] | – | – | dramatically inhibited 6-OAP-induced pERK1/2 upregulation | –
3 | C[C@@H]1C[C@H]2[C@@H]3CCC4=CC(=O)C=C[C@]4(C)[C@@]3(F)[C@@H](O)C[C@]2(C)[C@@]1(O)C(=O)CO [Dex, Dexamethasone, reference compound] | – | – | – | slight inhibition rate
4 | C=C(C)C(=O)OC1C2C(CC(C)C3C=CC(=O)C31C)OC(=O)C2C (stereo not drawn) [6-O-methylacrylylplenolin] | exhibit antibacterial activity | exhibit antibacterial activity | – | –
